Drawing on US12173001B1, “Pyrido[3,4-e][1,2,4]triazolo[4,3-c]pyrimidines as CK2 inhibitors” (King Faisal University, priority 2024, dated 2024), this text covers IC50 for 1 compound.

The structures appear in SMILES notation.

One test relates to PC3 (prostate). Description: In vitro cytotoxic activity (MTT) assay, PC3. It is filed as cell-based. Particulars: Homo sapiens, Prostate cell, cells exposed for 96 hours, read-out: Cytotoxicity activity IC50 (50% inhibition of cell proliferation). As for the experimental part:
(§1) Compounds 1-16 were screened for their in vitro cytotoxic activity utilizing a 3-(4,5-dimethyl-thiazol-2-yl)-2,5-diphenyltetrazolium bromide (MTT) assay against selected cancer human cell lines consisting of PC3 (prostate), HCT116 (colon), A375 (melanoma), H1299 (lung), MIAPaCa-2 (pancreas), HL60 (leukemia), MCF7 (breast), MDA-MB-231 (breast) (T. Mosmann, J. Immunol. Meth., 1983, 65, 55-63). The cells were cultured at 37° C. in RMPI1640 medium supplemented with 10% fetal bovine serum, 50 IU/mL penicillin, and […] streptomycin in a 5% CO2 incubator. All cells were sub-cultured 3 times/week by trypsinization. Viable cells were seeded and allowed to adhere for 12 hours before a test drug was added in 96-well plates at an initial density of 1.0×10^5 cells/mL. Tumor cell lines were separately exposed to various concentrations of the tested compounds followed by incubation at a temperature of 37° C. during 96 hours inside a medium of fresh RMPI 1640. Cells were subsequently incubated at 37° C. using MTT at 0.5 mg/mL during 4 hours. After removal of supernatant, formazan crystals were dissolved in isopropanol and the optical density was measured at 570 nm. CX-4945 was used as a positive control.

Another test concerns HCT116 (colon). Description: In vitro cytotoxic activity (MTT) assay, HCT116. It is filed as cell-based. The note with it: Homo sapiens, HCT-116, cells exposed for 96 hours, read-out: Cytotoxicity activity IC50 (50% inhibition of cell proliferation). As for the experimental part: as §1
The subject of the next test is A375 (melanoma). Description: In vitro cytotoxic activity (MTT) assay, A375. Type of test: cell-based. Particulars: Homo sapiens, A-375, cells exposed for 96 hours, read-out: Cytotoxicity activity IC50 (50% inhibition of cell proliferation). As for the experimental part:
as §1

The subject of a further test is H1299 (lung). Description: In vitro cytotoxic activity (MTT) assay, H1299. It is filed as cell-based. The note with it: Homo sapiens, NCI-H1299, cells exposed for 96 hours, read-out: Cytotoxicity activity IC50 (50% inhibition of cell proliferation). As for the experimental part:
as §1

For a further test, the system named is MIAPaCa-2 (pancreas). Description: In vitro cytotoxic activity (MTT) assay, MIAPaCa-2. Type of test: cell-based. The note with it: Homo sapiens, MIA PaCa-2, cells exposed for 96 hours, read-out: Cytotoxicity activity IC50 (50% inhibition of cell proliferation). As for the experimental part:
as §1

The subject of another test is HL60 (leukemia). Description: In vitro cytotoxic activity (MTT) assay, HL60. It is filed as cell-based. Particulars: Homo sapiens, HL-60, cells exposed for 96 hours, read-out: Cytotoxicity activity IC50 (50% inhibition of cell proliferation). As for the experimental part: as §1
For another test, the system named is MCF7 (breast). Description: In vitro cytotoxic activity (MTT) assay, MCF7. It is filed as cell-based. Particulars: Homo sapiens, cells exposed for 96 hours, read-out: Cytotoxicity activity IC50 (50% inhibition of cell proliferation). As for the experimental part:
as §1

In another test the test system is MDA-MB-231 (breast). Description: In vitro cytotoxic activity (MTT) assay, MDA-MB-231. It is filed as cell-based. The note with it: Homo sapiens, cells exposed for 96 hours, read-out: Cytotoxicity activity IC50 (50% inhibition of cell proliferation). As for the experimental part: as §1
The target of a further test is T1, recombinant human CK2 (Homo sapiens, UniProt P68400).
T1 construct: purchased Millipore
T1 sequence (P68400 whole entry): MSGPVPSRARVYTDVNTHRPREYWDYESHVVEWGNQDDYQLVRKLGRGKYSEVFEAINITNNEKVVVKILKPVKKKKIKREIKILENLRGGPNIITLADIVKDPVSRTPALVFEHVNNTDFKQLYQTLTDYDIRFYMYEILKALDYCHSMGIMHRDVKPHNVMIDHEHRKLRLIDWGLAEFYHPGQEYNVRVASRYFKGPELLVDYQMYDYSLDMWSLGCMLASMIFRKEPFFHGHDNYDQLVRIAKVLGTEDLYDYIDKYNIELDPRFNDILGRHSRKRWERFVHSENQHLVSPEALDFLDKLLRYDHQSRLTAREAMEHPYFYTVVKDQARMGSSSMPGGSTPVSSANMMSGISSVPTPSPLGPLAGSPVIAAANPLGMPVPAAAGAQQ
T1 sequence (P67870 whole entry partner): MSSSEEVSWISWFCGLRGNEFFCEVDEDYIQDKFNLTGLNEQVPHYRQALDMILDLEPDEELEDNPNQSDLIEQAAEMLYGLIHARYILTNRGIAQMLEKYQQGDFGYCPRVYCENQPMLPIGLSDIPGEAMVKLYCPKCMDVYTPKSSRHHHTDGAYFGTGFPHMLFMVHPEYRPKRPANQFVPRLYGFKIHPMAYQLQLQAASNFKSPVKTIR
Description: CK2 Kinase Assay (33P-ATP, filter plate). The note with it: final ATP concentration 15 μM, 10 min at 30° C.; read-out: protein kinase CK2 activity IC50. It is filed as biochemical. As for the experimental part: CK2 Kinase Assay was conducted using the protocol as described in Pierre F. et al; J. Med. Chem. 2011, 54, 635-654. The tested compounds in aqueous solution were added at a volume of 10 μL to a reaction mixture comprising 10 μL of assay dilution buffer (ADB; 20 mM MOPS, pH 7.2, 25 mM β-glycerol phosphate, 5 mM EGTA, 1 mM sodium orthovanadate, and 1 mM dithiothreitol), 10 μL of substrate peptide (RRRDDDSDDD (SEQ 1), dissolved in ADB at a concentration of 1 mM), 10 μL of recombinant human CK2 (RROP-holoenzyme, 25 ng dissolved in ADB; Millipore). Reactions were initiated by the addition of 10 μL of ATP solution (90% 75 mMMgCl2, 75 μM ATP (final ATP concentration: 15 μM) dissolved in ADB; 10% [γ-33P] ATP (stock 1mCi/100 μL; 3000 Ci/mmol (Perkin-Elmer) and maintained for 10 min at 30° C. The reactions were quenched with 100 μL of 0.75% phosphoric acid and then transferred to and filtered through a phosphor cellulose filter plate (Millipore). After washing each well five times with 0.75% phosphoric acid, the plate was dried under vacuum for 5 min and, following the addition of 15 μL of scintillation fluid to each well, the residual radioactivity was measured using a Wallac luminescence counter. The IC50 values were derived from eight concentrations of test inhibitors.

On to `O=C(O)c1nnc2c3cnccc3nc(Nc3cccc(Cl)c3)n12` [Compound 1, 5-((3-chlorophenyl)amino)pyrido[3,4-e][1,2,4]triazolo[4,3-c]pyrimidine-3-carboxylic acid], for which the IC50 in the test with PC3 (prostate) stood at 1.5 µM; in the test with HCT116 (colon), 2.8 µM; with A375 (melanoma) it was 5.4 µM; with H1299 (lung) it was 3.1 µM; in the test on MIAPaCa-2 (pancreas), 1.3 µM; in the test on HL60 (leukemia) it was 5.8 µM. Besides, the IC50 with MCF7 (breast) was 4.9 µM; in the test with MDA-MB-231 (breast), 4.5 µM; on recombinant human CK2 it was 0.032 µM.
